Data: US6340698B1, “Antifungal solutions” (priority 1999, dated 2002)

Assays:
Assay type in all cases: physicochemical
Solubility in water = assay: Solubility in water
[1] = Solubility in strong acids (glacial acetic acid, concentrated hydrochloric acid)
Source text: For example, 1 g of free itraconazole can be dissolved in about 3 g of glacial acetic acid or about 3 to 4 g of concentrated hydrochloric acid (i.e. 36-38% HCl in water).

[2] = Dilution with water of a solution in strong acid; details: solution in strong acid diluted with water to weaken the acid
Protocol: However, strongly acidic solutions are unsuitable for oral administration, and if a solution of itraconazole or saperconazole in strong acid is diluted with water to weaken the acid, the itraconazole or saperconazole precipitates.

solubility in water (Solubility in water) | solubility in strong acids [1] | behaviour when solution in strong acid is diluted with water [2] | Compound
practically insoluble in water | soluble in strong acids | – | CCC(C)n1ncn(-c2ccc(N3CCN(c4ccc(OCC5COC(Cn6cncn6)(c6ccc(Cl)cc6Cl)O5)cc4)CC3)cc2)c1=O (centres unmarked) [itraconazole, Itraconazole]
practically insoluble in water | soluble in strong acids | precipitates | CCC(C)n1ncn(-c2ccc(N3CCN(c4ccc(OC[C@H]5CO[C@](Cn6cncn6)(c6ccc(F)cc6F)O5)cc4)CC3)cc2)c1=O (some centres unmarked) [saperconazole]
